Article PMC4995014, “Identification of ABC Transporter Interaction of a Novel Cyanoquinoline Radiotracer and Implications for Tumour Imaging by Positron Emission Tomography” (PLoS ONE, 2016)

Key:
MCF7 cells [1] = assay: SRB cell viability assay in MCF7 cells; type: cell-based; settings: Homo sapiens, 72 h
Protocol: (§1) Cell viability by the sulforhodamine B (SRB) assay was used to assess cell growth and cytotoxicity of test compounds [29]. Cells were seeded at densities of 3,500 to 5,000 cells per well in 96 well plates overnight and pre-treated for 1 h with ABC transporter modulators: 10 μM fumitremorgin C (FTC; in MCF7MX and MCF7 cells), or 0.3 μM of zosuquidar (in 3T3 and 3T3-MDR1). Cells were then treated with test compounds for 72 h, at 37°C. After drug treatment, cells were fixed by addition of 50% trichloroacetic acid (TCA), and the plates washed and dried to allow staining with 0.4% solution of sulforhodamine B (Sigma) in 1% acetic acid for 30 minutes. Excess dye was removed upon washing with 1% acetic acid. Plates were dried and bound protein was solubilised upon addition of 150 μL of 10 mM Tris base buffer. Absorbance was measured at 540 nm using Thermo Multiskan-Ex plate reader. Cell viability versus compound concentration curves were plotted as a percentage of control cells. The concentration of drug that gave 50% inhibition in cell growth (GI50) was extrapolated from these curves using the sigmoid curve fit with variable slope in Prism (GraphPad Prism version 5.01, GraphPad Software, San Diego California USA). Three to six replicate wells were used for each drug concentration and experiments were carried out on three separate occasions for each compound.

MCF7MX cells [2] = assay: SRB cell viability assay in MCF7MX cells (ABCG2 overexpressing); type: cell-based, human; settings: for fold increase in GI50 in the ABCG2 overexpressing cell line: GI50 MCF7MX over GI50 MCF7, without FTC; for GI50: Homo sapiens, MCF7/MX, 72 h, SRB
Protocol: as §1

3T3 cells [3] = assay: SRB cell viability assay in 3T3 cells; type: cell-based; settings: Mus musculus, NIH3T3, 72 h
Protocol: as §1

3T3-MDR1 cells [4] = assay: SRB cell viability assay in 3T3-MDR1 cells (ABCB1 expressing); type: cell-based; settings: GI50 3T3-MDR1 over GI50 3T3, without zosuquidar
Protocol: as §1

ABCB1 (MDR1) = assay: as above; type: cell-based; settings: mouse, 3T3-MDR1 cells (ABCB1 expressing), 72 h, SRB
Protocol: as §1

Caco2 transwell assay = type: in vitro ADME, human; settings: human; for efflux ratio at 120 min: Caco-2, no inhibitor, 10 μM cyanoquinoline or 50 μM vinblastine, read-out: efflux ratio (Papp B-A / Papp A-B)
Protocol: The caco2 transwell assay was performed to assess permeability. Cells were seeded at a density of 60,000 cells per well in 24 well transwell plates (Millipore, Billerica, Massachutsetts, USA), and maintained in DMEM supplemented with […] glucose (20% FBS, 1% penicillin/streptomycin, 1% glutamine) for 21 days at 37°C in 5% CO2. After 21 days the cells differentiate into enterocytes and express all three MDR proteins, ABCB1 and ABCG2 at the apical side and ABCC1 on the basal side. On day 21, cells were washed three times with Hank's Balanced Salt Solution (HBSS) (Fisher scientific, Loughborough, UK) and the trans-epithelial electric resistance (TERR) was measured using an Epithelial Voltohmmeter (EVOM) (World Precision Instruments, Sarasota, USA); only transwells with TERR of 400 Ω/cm^2 or above were used for the experiment. Cells were treated either at the apical (n = 3) or basal (n = 3) side of the transwell by addition of 10 μM of cyanoquinoline compound or 50 μM vinblastine prepared in a volume of 400 μL HBSS (compound added to apical well) or 800 μL of HBSS (added to basal well). When transport inhibitors FTC (10 μM) or zosuquidar (0.3 μM) were used, they were added to both the apical and basal wells 1 h prior to drug treatment. After 1 h pre-treatment the medium was removed and cells were treated with the compounds prepared in HBSS containing FTC or Zosuquidar.
Plates were incubated in shaker incubator at 37°C and 60 rpm for 120 min. After incubation, 200 μL aliquots from the apical and the basal wells were collected and analysed using high performance liquid chromatography (HPLC). Samples were run on a Millipore Waters HPLC system which included a 717 plus autosampler and 2487 dual wavelength absorbance detector system. The stationary phase comprised of a Phenomenex Luna C18 reverse phase column (150 X 4.6 mm; 5 μm particle size). The mobile phase comprised water (0.1% TFA) and acetonitrile (0.1% TFA) (80:20 v/v) at a flow rate of 1 mL/min for all compounds except vinblastine. For vinblastine, the stationary phase comprised a Supelcosil LC-ABZ reverse phase column (5 × 4.6 mm; 5 μm particle size). The mobile phase comprised water (0.1% formic acid) and methanol (90:10 to 10:90 v/v gradient over 20 min). Peak areas corresponding to the compounds of interest were recorded. Using standard curves the areas under the curve were converted into concentrations of compound. The permeability coefficient (Papp) was calculated using the following equation [30]: Papp = (dQ/dt)/A C0, where A is the surface area of the transwell membrane in cm^2 (= 0.33 cm^2), C0 is the drug concentration in the donor chamber at time t = 0 and dQ/dt is the rate of transfer of the compound to the receiver chamber, determined from the slope of the graph concentration (dQ) versus time (dt). Papp values corresponding to absorption and secretion were assessed and used to calculate efflux ratio. Efflux ratio =(Papp B−A)/(Papp A−B) Where Papp A-B = Papp absorption and Papp B-A = Papp secretion.
The integrity of the caco2 cell membrane was assessed for each well following the experiment by addition of a 100 μM solution of […] (Sigma) in HBSS to the apical side of the plate. The plates were placed in the shaker incubator for 1 h at 37°C and 60 rpm. Samples from the basal wells were transferred into a 96 well plate and the levels of […] were assessed by measuring with an excitation of 450 nm and an emission of 540 nm using the PerkinElmer Wallac 1420 counter.

3T3 cells [5] = assay: Cell uptake assay in 3T3 cells; type: cell-based; settings: 1 h incubation with 0.22 MBq
Protocol: (§2) [^18F]FED6 and [^18F]FED20 were synthesised as previously reported. To increase specific radioactivity of [^18F]FED20, we modified the synthesis by decreasing the amount of alkyne precursor from 1 mg down to 0.5 mg. While this had the desired effect of increasing the specific activity from 7.3 GBq/μmol up to 52 GBq/μmol, the conversion of the alkyne to the triazole product dropped from > 95% down to 45%. Cells were seeded in 6 well plates and [^18F]FED6 (0.22 MBq) or [^18F]FED20 (0.55 MBq or 0.74 MBq) added to each well and incubated at 37°C for 1 h. Media were then removed and cells were washed twice with PBS. The cells were trypsinised and centrifuged for 3 minutes at 2000 rpm to obtain a pellet. The cell pellet was washed once with PBS and resuspended in 200 μL of RIPA buffer. Cell lysates were transferred to gamma counting tubes and the radioactivity in the pellet was measured on a Packard Cobra II gamma counter, (Perkin-Elmer, Waltham, Massachusetts, USA). Protein concentrations of samples were evaluated using Pierce® BCA Protein Assay Kit (Thermo Scientific, Waltham, Massachusetts, USA). Data were expressed as background- and decay-corrected counts per minute (CCPMA) per μg of cellular protein.

3T3-MDR1 cells [6] = assay: Cell uptake assay in 3T3-MDR1 cells; type: cell-based
Protocol: as §2

MCF7 cells [7] = assay: Cell uptake assay in MCF7 cells; type: cell-based, human; settings: 1 h incubation with 0.22 MBq
Protocol: as §2

MCF7MX cells [8] = assay: Cell uptake assay in MCF7MX cells; type: cell-based, human
Protocol: SiRNA transfections were carried out using ON TARGET plus-SMARTpool siRNA or non-targeting siRNA (Dharmacon, Lafayette, Louisianna, USA); ABCG2, L-009924-00-0005 and scramble (non-targeting) D-001810-10-05. Lipofectamine RNAiMAX (Invitrogen UK) was used as the transfection reagent and was prepared as indicated on the product protocol. Cells were seeded in black 96 well plates in antibiotic free media. On the day of transfection, siRNA and Lipofectamine were separately diluted in opti-MEM media, mixed in a 1 to 1 ratio and incubated at room temperature for 20 min; the siRNA-Lipofectamine complexes were then added to the cells. Fresh media containing 1% penicillin streptomycin was added to the cells after 24 h followed by Hoechst fluorescent assays at 72 h.
as §2

H358 cells = assay: Cell uptake assay in H358 cells; type: cell-based; settings: 1 h incubation with 0.22 MBq
Protocol: as §2

[9] = 1 h pre-treatment with 10 μM FTC
[10] = pre-treatment with 0.3 μM zosuquidar
[11] = with zosuquidar 0.3 μM (1 h pre-treatment), pre-treatment with 0.3 μM zosuquidar

Compound | GI50 (MCF7 cells [1]; [9]) | GI50 (MCF7 cells [1]; without FTC) | fold increase in GI50 in the ABCG2 overexpressing cell line (MCF7MX cells [2]) | GI50 (MCF7MX cells [2]; [9]) | GI50 (MCF7MX cells [2]; without FTC) | GI50 (3T3 cells [3]; [10]) | GI50 (3T3 cells [3]; without zosuquidar) | fold increase in GI50 in the ABCB1 overexpressing cell line (3T3-MDR1 cells [4]) | GI50 at 72 h (ABCB1 (MDR1); [11]) | GI50 at 72 h (ABCB1 (MDR1); without zosuquidar) | efflux ratio at 120 min (Caco2 transwell assay) | further results
CCOc1cc2ncc(C#N)c(Nc3ccc(F)c(Cl)c3)c2cc1NC(=O)/C=C/CN(C)C [EKB-569, pelitinib, reference compound] | 2.55 ± 0.04 µM | 2.61 ± 0.07 µM | 1.7 fold | 1.54 ± 0.06 µM | 4.28 ± 0.23 µM | 1.15 ± 0.6 µM | 1.06 ± 0.6 µM | 5.4 fold | 2.7 ± 0.8 µM | 5.75 ± 0.7 µM | > 3 | 
CC[C@]1(O)C[C@@H]2CN(CCc3c([nH]c4ccccc34)[C@@](C(=O)OC)(c3cc4c(cc3OC)N(C)[C@H]3[C@@](O)(C(=O)OC)[C@H](OC(C)=O)[C@]5(CC)C=CCN6CC[C@]43[C@@H]65)C2)C1 [Vinblastine, reference compound] | 0.00536 ± 0.00063 µM | 0.00512 ± 0.00074 µM |  | 0.00266 ± 0.00066 µM | 0.00208 ± 0.00041 µM | 0.0015 ± 0.0012 µM | 0.0018 ± 0.001 µM |  | 0.0011 ± 0.0011 µM | 0.219 ± 0.0008 µM |  | efflux ratio at 120 min, 50 μM (Caco2 transwell assay; Caco-2, pre-treatment with zosuquidar, read-out: efflux (permeability) ratio after pre-treatment with zosuquidar): 1.7
CCOc1cc2ncc(C#N)c(Nc3ccc(F)c(Cl)c3)c2cc1N [FED14] | 11.2 ± 1.11 µM | 11.4 ± 1.36 µM |  | 10.1 ± 0.73 µM | 6.53 ± 0.34 µM | 14.8 ± 0.7 µM | 14.8 ± 0.7 µM |  | 12.2 ± 0.6 µM | 8.7 ± 0.7 µM | < 1 | 
CCOc1cc2ncc(C#N)c(Nc3ccc(F)c(Cl)c3)c2cc1NC(=O)/C=C/CNCc1cn(CC[18F])nn1 [[^18F]FED6, [^18F](2E)-N-{4-[(3-chloro-4-fluorophenyl)amino]-3-cyano-7-ethoxyquinolin-6-yl}-4-({[1-(2-fluoroethyl)-1H-1,2,3-triazol-4-yl]methyl}amino)-but-2-enamide] |  |  |  |  |  |  |  |  |  |  |  | protein normalised uptake in 3T3 cells (3T3 cells [5]): 22 CCPMA/μg of protein; fold increase of uptake in 3T3-MDR1 cells following zosuquidar pre-treatment (3T3-MDR1 cells [6]; 0.3 μM zosuquidar for 1 h): 19 fold; protein normalised uptake in 3T3-MDR1 cells (3T3-MDR1 cells [6]; 1 h incubation with 0.22 MBq): 0.7 CCPMA/μg of protein; protein normalised uptake in MCF7 cells (MCF7 cells [7]): 81 CCPMA/μg of protein; uptake in MCF7MX cells following ABCG2 siRNA (MCF7MX cells [8]; 25 nM ABCG2 siRNA 72 h, 1 h incubation with 0.22 MBq): 3.5 CCPMA/μg protein; uptake in scramble siRNA transfected MCF7MX cells (MCF7MX cells [8]; 25 nM scrambled siRNA 72 h, 1 h incubation with 0.22 MBq): 0.6 CCPMA/μg protein; fold increase of uptake in MCF7MX cells following FTC pre-treatment (MCF7MX cells [8]; 10 μM FTC for 1 h): 4 fold; uptake in MCF7MX cells following FTC pre-treatment (MCF7MX cells [8]; 10 μM FTC for 1 h, 1 h incubation with 0.22 MBq): 6 CCPMA/μg protein; uptake in MCF7MX cells following gefitinib pre-treatment (MCF7MX cells [8]; 10 μM gefitinib for 1 h, 1 h incubation with 0.22 MBq): 6.3 CCPMA/μg protein; protein normalised uptake in MCF7MX cells (MCF7MX cells [8]; 1 h incubation with 0.22 MBq): 7.7 CCPMA/μg of protein; protein normalised uptake in H358 cells (H358 cells): 86 CCPMA/μg of protein
O=C1c2c(O)ccc(O)c2C(=O)c2c(NCCNCCO)ccc(NCCNCCO)c21 [Mitoxantrone, reference compound] | 6.62 ± 3.82 µM | 10.7 ± 6.18 µM |  | 22.8 ± 13.1 µM | 2500 ± 1440 µM | 197 ± 0.6 µM | 37 ± 0.8 µM |  | 57 ± 1 µM | 141 ± 1 µM |  | 
CCOc1cc2ncc(C#N)c(Nc3ccc(F)c(Cl)c3)c2cc1NC(=O)/C=C/CNC [FED2] | 14.8 ± 8.54 µM | 14.9 ± 8.6 µM | 3.2 fold | 10.3 ± 5.95 µM | 27.6 ± 15.9 µM | 4.5 ± 0.8 µM | 7 ± 1.2 µM | 5.1 fold | 5.9 ± 0.6 µM | 36 ± 1.1 µM | > 3 | 
